Measurements reported in US11109593B2, “Isoxazolin-5-one derivative and herbicide containing same as active ingredient” (HOKKO CHEMICAL INDUSTRY CO., LTD., priority 2017, dated 2021).

Legend:
Assay type in all cases: in vivo
Echinochloa crus-galli [1] = assay: Test Example 1: herbicidal effect test by treatment of rice paddy soil (immediately after seeding); details: 120 g/10a active ingredient, dry weight vs untreated area, 14 days after treatment
Procedure, shortened: (§1)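 Flooded paddy pot test in a glass greenhouse: emulsion diluted in water, dropped at 120 g a.i. per 10 ares just after sowing, water depth kept about 3 cm. Dry-weight reduction relative to untreated plants is scored at 14 days.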

Scirpus juncoides [2] = assay: as above; details: 120 g/10a active ingredient, dry weight vs untreated area, 14 days after treatment
Procedure, shortened: as §1

[3] = test system: broad leaf weeds (Lindernia pyxidaria and Monochoria vaginalis); assay: as above; details: 120 g/10a active ingredient, dry weight vs untreated area, 14 days after treatment
Procedure, shortened: as §1

Echinochloa crus-galli [4] = assay: Test Example 2: herbicidal effect test by treatment during growing period in paddy rice cultivation (seven days after seeding); details: 120 g/10a active ingredient, assessed 14 days after treatment, dry weight vs untreated area
Procedure, shortened: (§2)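 Paddy soil in Wagner pots with compound fertilizer, puddled; 30 seeds per species sown at 0–1 cm, flooded ~3 cm, greenhouse. Seven days after seeding, water-diluted emulsions were dropped into the water at 120 g active ingredient per 10 ares. Duplicate pots; herbicidal rate from dry weight versus untreated, 14 days after treatment.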

Scirpus juncoides [5] = assay: as above; details: 120 g/10a active ingredient, assessed 14 days after treatment, dry weight vs untreated area
Procedure, shortened: as §2

[6] = test system: broad leaf weeds (Lindernia pyxidaria and Monochoria vaginalis); assay: as above; details: 120 g/10a active ingredient, assessed 14 days after treatment, dry weight vs untreated area
Procedure, shortened: as §2

Amaranthus viridis [7] = assay: Test Example 3: herbicidal effect test by treatment of dry field farming soil (one day after seeding); details: 120 g/10a active ingredient, evaluated 14 days after treatment
Procedure, shortened: (§3)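 Pre-emergence soil treatment: alluvial dry-field soil, 20 seeds per species mixed into top 1 cm, emulsion diluted in water sprayed one day after seeding at 100 L per 10 ares (120 g active ingredient per 10 ares). Duplicate pots; herbicidal rate (%) from dry weight vs untreated at 14 days.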

Chenopodium album [8] = assay: as above; details: 120 g/10a active ingredient, evaluated 14 days after treatment
Procedure, shortened: as §3

Echinochloa crus-galli [9] = assay: as above; details: 120 g/10a active ingredient, evaluated 14 days after treatment
Procedure, shortened: as §3

southern crabgrass [10] = assay: as above; details: 120 g/10a active ingredient, evaluated 14 days after treatment
Procedure, shortened: as §3

Amaranthus viridis [11] = assay: Test Example 4: herbicidal effect test by treatment of leave and stem in dry field farming (seven days after seeding); details: 120 g/10a active ingredient; emulsion sprayed seven days after seeding; evaluated 14 days after treatment
Procedure, shortened: (§4)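 Weeds were seeded at 20 seeds per species into the top 1 cm of alluvial upland soil in pots, then sprayed 7 days after seeding with water-diluted emulsifiable concentrate at 100 L/10 a, giving 120 g active ingredient/10 a. Duplicate pots; herbicidal rate (%) was 14 days post-treatment, from dry weight versus untreated.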

Chenopodium album [12] = assay: as above; details: 120 g/10a active ingredient; emulsion sprayed seven days after seeding; evaluated 14 days after treatment
Procedure, shortened: as §4

Echinochloa crus-galli [13] = assay: as above; details: 120 g/10a active ingredient; emulsion sprayed seven days after seeding; evaluated 14 days after treatment
Procedure, shortened: as §4

southern crabgrass [14] = assay: as above; details: 120 g/10a active ingredient; emulsion sprayed seven days after seeding; evaluated 14 days after treatment
Procedure, shortened: as §4

Row | Structure (SMILES) | Herbicidal rate (%) Echinochloa crus-galli (Echinochloa crus-galli [1]) [%] | Herbicidal rate (%) Scirpus juncoides (Scirpus juncoides [2]) [%] | Herbicidal rate (%) Lindernia pyxidaria [3] [%] | Herbicidal rate (%) Monochoria vaginalis [3] [%] | Herbicidal rate (%) Echinochloa crus-galli (Echinochloa crus-galli [4]) [%] | Herbicidal rate (%) Scirpus juncoides (Scirpus juncoides [5]) [%] | Herbicidal rate (%) Lindernia pyxidaria [6] [%] | Herbicidal rate (%) Monochoria vaginalis [6] [%] | herbicidal rate, Amaranthus viridis (Amaranthus viridis [7]) [%] | herbicidal rate, Chenopodium album (Chenopodium album [8]) [%] | herbicidal rate, Echinochloa crus-galli (Echinochloa crus-galli [9]) [%] | herbicidal rate, southern crabgrass (southern crabgrass [10]) [%] | herbicidal effect (herbicidal rate), Amaranthus viridis (Amaranthus viridis [11]) [%] | herbicidal effect (herbicidal rate), Chenopodium album (Chenopodium album [12]) [%] | herbicidal effect (herbicidal rate), Echinochloa crus-galli (Echinochloa crus-galli [13]) [%] | herbicidal effect (herbicidal rate), southern crabgrass (southern crabgrass [14]) [%]
1 | CCOC(=O)N(c1ccccc1Cc1c(C)n(C(C)(C)C)oc1=O)S(=O)(=O)C(F)(F)F [Compound 1-604] | 90 | 90 | 90 | 90 | 90 | 90 | 90 | 90 | 90 | 90 | 90 | 90 | 40 | 40 | 90 | 90
2 | Cc1c(Cc2ccccc2N(S(C)(=O)=O)S(=O)(=O)C(F)(F)F)c(=O)on1Cc1ccc(F)cc1 [Compound 1-906] | 100 | 100 | 100 | 100 | 90 | 100 | 100 | 100 | 50 | 70 | 100 | 90 | 100 | 50 | 90 | 50
3 | CCCC(C)n1oc(=O)c(Cc2ccccc2NS(=O)(=O)C(F)(F)F)c1C (centres unmarked) [Compound 1-109] | 100 | 100 | 100 | 100 | 90 | 90 | 70 | 90 | 60 | 60 | 90 | 90 | 70 | 50 | 90 | 80
4 | Cc1c(Cc2ccccc2N(S(=O)(=O)C(F)(F)F)S(=O)(=O)C(F)(F)F)c(=O)on1CC1(C)CC1 [Compound 1-993] | 100 | 100 | 100 | 100 | 90 | 90 | 50 | 60 | 40 | 40 | 90 | 80 | 40 | 40 | 60 | 40
5 | CCC(C)n1oc(=O)c(Cc2ccccc2N(C(=O)C2CC2)S(=O)(=O)C(F)(F)F)c1C (centres unmarked) [Compound 1-404] | 90 | 90 | 90 | 90 | 90 | 90 | 90 | 90 | 90 | 90 | 90 | 90 | 40 | 40 | 90 | 90
